{"source": "patent US20220249599A1", "about": "“TREATMENT OF IMPLANTS WITH ENGINEERED ANTIMICROBIAL AMPHIPHILIC PEPTIDES” (priority 2018, published 2022)", "key": {"[1]": {"system": "Streptococcus pyogenes ATCC 49399", "assay_type": "cell-based", "conditions": "ATCC 49399", "procedure,_shortened": "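CLSI broth microdilution; MHB II + 0.002% P80; 2-fold peptide series, top 32 mcg/mL final; 35° C., 16–20 hrs; MIC = lowest conc. with no visible growth. Peptides in PBS; SEQ ID NO:5 and 8 from DMSO stocks, 2.5% DMSO at first dilution.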"}, "[2]": {"system": "Enterobacter spp. (n = 102)", "assay_type": "cell-based, Enterobacter aerogenes and E. cloacae", "procedure": "The clinical isolates were obtained from USA hospitals. […] Plates were incubated at 35° C. overnight."}, "[3]": {"conditions": "rat; for AUCinf / AUClast / Cmax / Extrapolated / MRTlast / T1/2: Mean; for Tmax: individual animals", "procedure": "Male Sprague-Dawley Rats will be received from an approved vendor with a single jugular vein cannula (JVC) and allowed to acclimate to the Test Facility for at least 2 days prior to study start. Animals will be weighed prior to dosing. No fasting will be required.\nIntravenous administration will be via 30 minute infusion into a JVC. Following dosing, the catheter will be flushed with ˜0.5 mL saline and tied off to prevent re-access.\nSerial blood samples will be collected via jugular vein cannula (JVC) or by another approved method if patency is lost. The final blood samples will be obtained via direct cardiac puncture following inhalation anesthesia.\nBlood samples will be collected into K2EDTA tubes and stored on wet ice. Whole blood will be processed to plasma by centrifugation (3500 rpm at 5° C.) within 30 minutes of collection. Plasma samples will be transferred into 96 well plates (matrix tubes) and stored at −80° C. until analysis. Administered doses will be determined gravimetrically.\nPrior to extraction, a known concentration of a mass-adjusted internal standard (IS) will be added to assess recovery and allow for quantitation. Purified samples will be further subjected to high-performance liquid chromatography (HPLC) using C18 300 or 130 angstrom columns prior to MS/MS analysis. Multiple charge states will be observed by MS, so MS/MS will be employed to enable multiple reaction monitoring (MRM) analyses to determine the most MRM transitions with the highest signal-to-noise gain. Compound plasma concentrations will be determined by comparing to and compensating with co-purified IS peak intensity and validated calibrated standard curves.\nPharmacokinetic parameters will be calculated using non-compartmental methods as implemented in the Phoenix® WinNonlin® ver. 6.3 comprehensive TK/PK analysis software program (Pharsight Corporation; Mountain View, Calif.) using an IV infusion model. Pharmacokinetic analysis will be conducted using a 30-minute intravenous infusion time. Therefore, 30 minutes will be added to each sample time point postdose to obtain nominal time for TK analysis. Nominal times and dosage levels will be used for all calculations. Values below the lower limit of quantitation (BLQ) will be assigned a value of zero for the pharmacokinetic calculations. Microsoft® Excel® 2013 will be used for receipt of bioanalytical data, minor formatting, including setting BLQ values to “0”, transfer into WinNonlin® for PK analysis, and calculation of the mean when an approximated value will be excluded. All plasma concentration data from all animals will be included in the analysis. Graphical presentations will be performed using Microsoft® Excel® 2013."}, "[4]": {"conditions": "mouse", "text": "Male CD-1 mice will be received from an approved vendor and allowed to acclimate for a minimum of two days. Fasting will be not required.\nAll dosing syringes will be weighed prior to and following dosing. IV doses will be administered as a slow bolus (over ˜30 seconds) via direct venipuncture of a tail vein. All animals will be observed at dosing and each scheduled collection. All abnormalities will be recorded.\nTerminal blood samples will be collected via cardiac puncture following inhalation anesthesia.\nSample Processing and Storage: Blood samples will be collected into K2EDTA tubes and stored on wet ice. Whole blood will be processed to plasma by centrifugation (3500 rpm at 5° C.) within 30 minutes of collection. Plasma samples will be split into 2 equal aliquots and each transferred into 96 well plates (matrix tubes) and stored at −80° C. until analysis. Administered doses will be determined gravimetrically."}}, "note": "Like-named read-outs stand apart in the source and are kept apart here. Ends that are not written are not given here."}
{"substance": "RRWVRRVRRVWRRVVRVVRRWVRR-NH2 (C-terminus assumed) [SEQ ID NO: 1]", "values": [{"measurement": "MIC", "setting": "[1]", "value": 8, "unit": "µg/mL"}, {"measurement": "Mode (MIC)", "setting": "[2]", "value": 16, "unit": "µg/mL"}, {"measurement": "AUCinf", "setting": "[3]; Group 4 IV infusion 10 mg/kg", "value": 80486, "unit": "ng·h/mL"}, {"measurement": "AUClast", "setting": "[3]; Group 4 IV infusion 10 mg/kg", "value": 80339, "unit": "ng·h/mL"}, {"measurement": "Cmax", "setting": "[3]; Group 4 IV infusion 10 mg/kg", "value": 67192, "unit": "ng/mL"}, {"measurement": "Extrapolated", "setting": "[3]; Group 4 IV infusion 10 mg/kg", "value": 0.186, "unit": "%"}, {"measurement": "MRTlast", "setting": "[3]; Group 4 IV infusion 10 mg/kg", "value": 1.18, "unit": "h"}, {"measurement": "T1/2", "setting": "[3]; Group 4 IV infusion 10 mg/kg", "value": 4.07, "unit": "h"}, {"measurement": "Tmax", "setting": "[3]; Group 4 IV infusion 10 mg/kg", "value": 0.5333, "unit": "h"}, {"measurement": "AUCinf", "setting": "[3]; IV infusion 1 mg/kg", "value": 787, "unit": "ng·h/mL"}, {"measurement": "AUClast", "setting": "[3]; IV infusion 1 mg/kg", "value": 757, "unit": "ng·h/mL"}, {"measurement": "Cmax", "setting": "[3]; IV infusion 1 mg/kg", "value": 1271, "unit": "ng/mL"}, {"measurement": "Extrapolated", "setting": "[3]; IV infusion 1 mg/kg", "value": 3.28, "unit": "%"}, {"measurement": "MRTlast", "setting": "[3]; IV infusion 1 mg/kg", "value": 1.67, "unit": "h"}, {"measurement": "T1/2", "setting": "[3]; IV infusion 1 mg/kg", "value": 6.16, "unit": "h"}, {"measurement": "Tmax", "setting": "[3]; IV infusion 1 mg/kg", "value": 0.5333, "unit": "h"}, {"measurement": "AUCinf", "setting": "[3]; IV infusion 5 mg/kg", "value": 25791, "unit": "ng·h/mL"}, {"measurement": "AUClast", "setting": "[3]; IV infusion 5 mg/kg", "value": 25683, "unit": "ng·h/mL"}, {"measurement": "Cmax", "setting": "[3]; IV infusion 5 mg/kg", "value": 30409, "unit": "ng/mL"}, {"measurement": "Extrapolated", "setting": "[3]; IV infusion 5 mg/kg", "value": 0.424, "unit": "%"}, {"measurement": "MRTlast", "setting": "[3]; IV infusion 5 mg/kg", "value": 1.03, "unit": "h"}, {"measurement": "T1/2", "setting": "[3]; IV infusion 5 mg/kg", "value": 5.43, "unit": "h"}, {"measurement": "Tmax", "setting": "[3]; IV infusion 5 mg/kg", "value": 0.5333, "unit": "h"}, {"measurement": "AUCIinf_D", "setting": "[4]; IV Dose 3 mg/kg", "value": "<3500", "unit": "kg·ng·h/mL/ng"}, {"measurement": "AUCinf", "setting": "[4]; IV Dose 3 mg/kg", "value": "<3500", "unit": "ng·h/mL"}, {"measurement": "Extrapolated", "setting": "[4]; IV Dose 3 mg/kg", "value": "~0.5", "unit": "%"}, {"measurement": "MRTlast", "setting": "[4]; IV Dose 3 mg/kg", "value": "~0.5", "unit": "h"}, {"measurement": "T1/2", "setting": "[4]; IV Dose 3 mg/kg", "value": "~8", "unit": "h"}, {"measurement": "AUCIinf_D", "setting": "[4]; IV Dose 15 mg/kg", "value": 3589, "unit": "kg·ng·h/mL/ng"}, {"measurement": "Extrapolated", "setting": "[4]; IV Dose 15 mg/kg", "value": 0.49, "unit": "%"}]}
